Data reported in article PMC3169410 (Acta Crystallographica Section F: Structural Biology and …, 2011).
Like-named read-outs stand apart in the source and are kept apart here.

Molecular target: T1, BrabA.11339.a (Brucella abortus, UniProt Q2YQ74)
T1 construct: gene BAB1_1016
Details: Mn2+ dinuclear active site at dimer interface

T1 sequence (Q2YQ74 2-272 limits assumed): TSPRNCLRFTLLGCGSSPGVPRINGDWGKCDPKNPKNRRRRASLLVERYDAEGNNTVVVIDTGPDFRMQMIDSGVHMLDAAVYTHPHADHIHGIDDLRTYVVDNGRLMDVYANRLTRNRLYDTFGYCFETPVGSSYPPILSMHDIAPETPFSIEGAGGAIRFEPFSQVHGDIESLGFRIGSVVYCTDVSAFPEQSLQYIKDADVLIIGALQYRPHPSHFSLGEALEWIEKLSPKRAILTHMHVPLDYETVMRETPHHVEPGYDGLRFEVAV

Structure (SMILES) | X-ray crystallography (GMP copurified from E. coli, partially occupied (3md7, 1.27 A), full density in cocrystal with 1 mM GMPPNP and 2 mM MgCl2 (3py6, 1.7 A)) | X-ray crystallography (AMP found in cocrystals grown with 1 mM AMPPNP and 2 mM MgCl2 (1.7 A and 1.6 A))
Nc1nc2c(ncn2[C@@H]2O[C@H](COP(=O)(O)O)[C@@H](O)[C@H]2O)c(=O)[nH]1 [GMP] | In the native structure, a partially occupied GMP molecule can be observed in the immediate proximity | –
Nc1ncnc2c1ncn2[C@@H]1O[C@H](COP(=O)(O)O)[C@@H](O)[C@H]1O [AMP] | – | very solid electron density could be observed for GMP and AMP, respectively
